Target: T1, PPAR γ (Homo sapiens, UniProt P37231)
T1 construct: expressed in transfected cells; host or cells: HEK293EBNA
T1 sequence (P37231 174-475 isoform P37231-2): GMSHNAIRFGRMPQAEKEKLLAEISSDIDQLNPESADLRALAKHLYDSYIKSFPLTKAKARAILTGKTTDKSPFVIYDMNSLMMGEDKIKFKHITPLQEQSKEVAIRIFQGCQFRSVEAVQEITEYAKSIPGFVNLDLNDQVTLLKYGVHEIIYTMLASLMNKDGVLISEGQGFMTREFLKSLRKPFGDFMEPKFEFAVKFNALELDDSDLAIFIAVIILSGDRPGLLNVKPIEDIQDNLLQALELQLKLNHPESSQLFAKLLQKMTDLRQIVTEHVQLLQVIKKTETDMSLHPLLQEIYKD
Experiment: PPAR γ activation action based on transactivation assay of PPAR γ by transient gene transfer (GAL4-PPAR γ chimeric receptor, luciferase reporter, HEK293EBNA cells)
Format: cell-based
Settings: concentration showing 50% of the compound's own efficacy (maximum activity rate relative to pioglitazone 10 μmol/L = 100%), 24 hr
Protocol: The agonist activity of compound (I) to PPAR γ was determined by a transactivation assay method using a chimeric nuclear receptor of a DNA binding region of a yeast transcription factor GAL4 and a PPAR γ ligand binding region. Specifically, the PPAR γ agonist activity of compound (I) was evaluated by the following method based on the method of Lehmann et al. (J Biol Chem., 1995, vol. 270, page 12953).
HEK293EBNA cells cultured in Dulbecco's Modified Eagle medium (Invitrogen) containing 10 v/v % fetal calf serum (Invitrogen) were used. 30 mL of the above-mentioned cells (density: 1×10^5 cells/mL) were inoculated in a […] (Iwaki Glass), and cultured overnight. Using SuperFect Transfection Reagent (QIAGEN), a plasmid expressing a GAL4-PPAR γ chimeric nuclear receptor fusing 174-475 amino acids, which are human PPAR γ ligand binding region, and 1-147 amino acids, which are GAL4 DNA binding region, and a reporter plasmid expressing a GAL4 responsive luciferase were transiently introduced into the cells at a proportion of 4:1. After 5 hr from transfection, the cells were detached from the culture dish, and the detached cells (density: 2×10^4 cells/mL) were inoculated by 100 μL in each well of a 96 well white plate (SUMITOMO BAKELITE), and cultured overnight. The medium was removed, compound (I) diluted in various concentrations with serum-free Dulbecco's Modified Eagle medium was added by 100 μL, and the mixture was reacted under a 5% carbon dioxide gas stream (5% CO2) at 37° C. for 24 hr. On the other hand, as a positive control, 10 μmol/L of pioglitazone (100 μL) was added, and the mixture was reacted under a 5% carbon dioxide gas stream (5% CO2) at 37° C. for 24 hr. As a substrate of luciferase, 100 μL of Steady-Glo (Promega) was added to each well and the mixture was thoroughly stirred. Immediately thereafter, the chemical luminescence due to luciferase was measured using TopCount NTX (Packard).
The agonist activity (activity rate (%)) of compound (I) to PPAR γ was calculated according to the following formula, as a relative activity when the agonist activity on addition of pioglitazone (10 μmol/L) was 100%.

Compound	EC50 [nM]
CCCc1nc2ccccc2n1Cc1ccc2c(c1)CCc1ccccc1/C2=C\c1noc(=O)[nH]1 [Compound 5, (E)-2-(2-Propylbenzimidazol-1-yl)methyl-5-(5-oxo-4,5-dihydro-1,2,4-oxadiazol-3-yl)methylene-10,11-dihydro-5H-dibenzo[a,d]cycloheptene]	399
CCCc1nc2ccccc2n1Cc1ccc2c(c1)CCc1ccccc1/C2=C\c1n[nH]c(=O)o1 [Compound 7, (E)-2-(2-Propylbenzimidazol-1-yl)methyl-5-(5-oxo-4,5-dihydro-1,3,4-oxadiazol-2-yl)methylene-10,11-dihydro-5H-dibenzo[a,d]cycloheptene]	791
CCc1nc2c(C)cc(C)nc2n1Cc1ccc2c(c1)CCc1ccccc1/C2=C\c1noc(=S)[nH]1 [Compound 8, (E)-2-(2-Ethyl-5,7-dimethyl-3H-imidazo[4,5-b]pyridin-3-yl)methyl-5-(5-thioxo-4,5-dihydro-1,2,4-oxadiazol-3-yl)methylene-10,11-dihydro-5H-dibenzo[a,d]cycloheptene]	175
CCCc1nc2c(C)cccc2n1Cc1ccc2c(c1)CCc1ccccc1/C2=C(\C)c1nnn[nH]1 [Compound 17, (Z)-2-(4-Methyl-2-propylbenzimidazol-1-yl)methyl-5-[1-(1H-tetrazol-5-yl)ethylidene]-10,11-dihydro-5H-dibenzo[a,d]cycloheptene]	30
C/C(=C1\c2ccccc2CCc2cc(Cn3c(C4CC4)nc4c(Cl)cccc43)ccc21)c1noc(=O)[nH]1 [Compound 19, (Z)-2-(4-Chloro-2-cyclopropylbenzimidazol-1-yl)methyl-5-[1-(5-oxo-4,5-dihydro-1,2,4-oxadiazol-3-yl)ethylidene]-10,11-dihydro-5H-dibenzo[a,d]cycloheptene]	6.4
CCc1nc(-c2ccccc2)cn1Cc1ccc2c(c1)COc1ccccc1/C2=C(\C)c1noc(=O)[nH]1 [Compound 21, (E)-8-(2-Ethyl-4-phenylimidazol-1-yl)methyl-11-[1-(5-oxo-4,5-dihydro-1,2,4-oxadiazol-3-yl)ethylidene]-6,11-dihydrodibenzo[b,e]oxepine]	40
CCc1nc2ccccc2n1Cc1ccc2c(c1)COc1ccccc1/C2=C(\C)c1noc(=O)[nH]1 [Compound 26, (E)-8-(2-Ethylbenzimidazol-1-yl)methyl-11-[1-(5-oxo-4,5-dihydro-1,2,4-oxadiazol-3-yl)ethylidene]-6,11-dihydrodibenzo[b,e]oxepine]	17
CCCc1nc2ccccc2n1Cc1ccc2c(c1)COc1ccccc1/C2=C(\C)c1noc(=O)[nH]1 [Compound 27, (E)-8-(2-Propylbenzimidazol-1-yl)methyl-11-[1-(5-oxo-4,5-dihydro-1,2,4-oxadiazol-3-yl)ethylidene]-6,11-dihydrodibenzo[b,e]oxepine]	2.6
COCc1nc2ccccc2n1Cc1ccc2c(c1)COc1ccccc1/C2=C(\C)c1noc(=O)[nH]1 [Compound 30, (E)-8-(2-Methoxymethylbenzimidazol-1-yl)methyl-11-[1-(5-oxo-4,5-dihydro-1,2,4-oxadiazol-3-yl)ethylidene]-6,11-dihydrodibenzo[b,e]oxepine]	9.8
C/C(=C1/c2ccc(Cn3c(Cc4ccccc4)nc4ccccc43)cc2COc2ccccc21)c1noc(=O)[nH]1 [Compound 33, (E)-8-(2-Benzylbenzimidazol-1-yl)methyl-11-[1-(5-oxo-4,5-dihydro-1,2,4-oxadiazol-3-yl)ethylidene]-6,11-dihydrodibenzo[b,e]oxepine]	26
CCCc1nc2c(C)cccc2n1Cc1ccc2c(c1)COc1ccccc1/C2=C(\C)c1noc(=O)[nH]1 [Compound 35, (E)-8-(2-Propyl-4-methylbenzimidazol-1-yl)methyl-11-[1-(5-oxo-4,5-dihydro-1,2,4-oxadiazol-3-yl)ethylidene]-6,11-dihydrodibenzo[b,e]oxepine]	2.4
CCc1nc2c(C)cc(-c3ccccc3)cc2n1Cc1ccc2c(c1)CCc1ccccc1/C2=C\C#N [Compound 50, (E)-[2-(2-Ethyl-4-methyl-6-phenylbenzimidazol-1-yl)methyl-10,11-dihydro-5H-dibenzo[a,d]cyclohepten-5-ylidene]acetonitrile]	352

Next, values leading:

EC50 [nM]	Compound
54	Cc1cc(-c2ccccc2)cc2c1nc(C)n2Cc1ccc2c(c1)CCc1ccccc1/C2=C\c1nnn[nH]1 [Compound 54, (E)-2-(2,4-Methyl-6-phenylbenzimidazol-1-yl)methyl-5-(1H-tetrazol-5-yl)methylene-10,11-dihydro-5H-dibenzo[a,d]cycloheptene]
39	Cc1cc(-c2ccccc2)cc2c1nc(C)n2Cc1ccc2c(c1)CCc1ccccc1/C2=C\C(=O)O [Compound 55, (E)-[2-(2,4-Dimethyl-6-phenylbenzimidazol-1-yl)methyl-10,11-dihydro-5H-dibenzo[a,d]cyclohepten-5-ylidene]acetic acid]
156	CCCc1nc2c(C)cc(-c3cccs3)cc2n1Cc1ccc2c(c1)CCc1ccccc1/C2=C\c1nnn[nH]1 [Compound 67, (E)-2-[4-Methyl-2-propyl-6-(2-thienyl)benzimidazol-1-yl]methyl-5-(1H-tetrazol-5-yl)methylene-10,11-dihydro-5H-dibenzo[a,d]cycloheptene]
156	CCCc1nc2c(C)cc(-c3nnco3)cc2n1Cc1ccc2c(c1)CCc1ccccc1/C2=C\c1nnn[nH]1 [Compound 70, (E)-2-[4-Methyl-6-(1,3,4-oxadiazol-2-yl)-2-propylbenzimidazol-1-yl]methyl-5-(1H-tetrazol-5-yl)methylene-10,11-dihydro-5H-dibenzo[a,d]cycloheptene]
328	CCc1nc2c(C)cc(C)nc2n1Cc1ccc2c(c1)OCc1ccccc1/C2=C(\C)c1noc(=O)[nH]1 [Compound 76, (Z)-3-(2-Ethyl-5,7-dimethyl-3H-imidazo[4,5-b]pyridin-3-yl)methyl-11-[1-(5-oxo-4,5-dihydro-1,2,4-oxadiazol-3-yl)ethylidene]-6,11-dihydrodibenzo[b,e]oxepine]
27	CCCc1nc2c(C)cccc2n1C(C)c1ccc2c(c1)CCc1ccccc1/C2=C\c1noc(=O)[nH]1 (centres unmarked) [Compound 85, (E)-2-[1-(2-Propyl-4-methylbenzimidazol-1-yl)ethyl]-5-(5-oxo-4,5-dihydro-1,2,4-oxadiazol-3-yl)methylene-10,11-dihydro-5H-dibenzo[a,d]cycloheptene]
60	CCc1nc2c(Cl)cccc2n1C(C)c1ccc2c(c1)CCc1ccccc1/C2=C\c1noc(=O)[nH]1 (centres unmarked) [Compound 87, (E)-2-[1-(4-Chloro-2-ethylbenzimidazol-1-yl)ethyl]-5-(5-oxo-4,5-dihydro-1,2,4-oxadiazol-3-yl)methylene-10,11-dihydro-5H-dibenzo[a,d]cycloheptene]
31	CCCc1nc2c(C)cc(-c3ncco3)cc2n1Cc1ccc2c(c1)CCc1ccccc1/C2=C\C(=O)N(C)CC(=O)O [Compound 95, (E)-2-[N-Methyl 2-({2-[4-methyl-6-(1,3-oxazol-2-yl)-2-propylbenzimidazol-1-yl]methyl-10,11-dihydro-5H-dibenzo[a,d]cyclohepten-5-ylidene}acetamido)]acetic acid]
13	CCCc1nc2c(C(C)(C)O)cccc2n1Cc1ccc2c(c1)COc1ccccc1/C2=C(\C)c1noc(=O)[nH]1 [Compound 96, (E)-8-[(4-Hydroxypropan-2-yl)-2-propylbenzimidazol-1-yl]methyl-11-[1-(5-oxo-4,5-dihydro-1,2,4-oxadiazol-3-yl)ethylidene]-6,11-dihydrodibenzo[b,e]oxepine]
20	CCCc1nc2c(C(N)=O)cccc2n1Cc1ccc2c(c1)COc1ccccc1/C2=C(\C)c1noc(=O)[nH]1 [Compound 100, (E)-1-{11-[1-(5-Oxo-4,5-dihydro-1,2,4-oxadiazol-3-yl)ethylidene]-6,11-dihydrodibenzo[b,e]oxepin-8-yl}methyl-2-propylbenzimidazole-4-carboxamide]
36	CCC/C(=C1/c2ccc(Cn3c(CCC)nc4ccccc43)cc2COc2ccccc21)c1noc(=O)[nH]1 [Compound 115, (E)-11-[1-(5-Oxo-4,5-dihydro-1,2,4-oxadiazol-3-yl)butylidene]-8-(2-propylbenzimidazol-1-yl)methyl-6,11-dihydrodibenzo[b,e]oxepine]

From patent publication US9475805B2, “Tricyclic compound” (Kyowa Hakko Kirin Co., Ltd., priority 2008, dated 2016)
